Test results published in PMC13576449, “Small-Molecule Activators of PRMT1: Discovery, SAR Analyses, and Proapoptotic Effects in Pancreatic Cancer Cells” (Journal of Medicinal Chemistry, 2026).

Target: T1, FLAG-tagged PRMT1 (Rattus norvegicus, UniProt Q63009)
T1 construct: Full-length FLAG-tagged PRMT protein; made in house; host or cells: Sf9 insect cells (baculovirus)
Test: Fluorescence-based in vitro PRMT assay (F-PRMT assay), PRMT1
Type: biochemical
Conditions: 100 μM compound

T1 sequence (Q63009 whole entry): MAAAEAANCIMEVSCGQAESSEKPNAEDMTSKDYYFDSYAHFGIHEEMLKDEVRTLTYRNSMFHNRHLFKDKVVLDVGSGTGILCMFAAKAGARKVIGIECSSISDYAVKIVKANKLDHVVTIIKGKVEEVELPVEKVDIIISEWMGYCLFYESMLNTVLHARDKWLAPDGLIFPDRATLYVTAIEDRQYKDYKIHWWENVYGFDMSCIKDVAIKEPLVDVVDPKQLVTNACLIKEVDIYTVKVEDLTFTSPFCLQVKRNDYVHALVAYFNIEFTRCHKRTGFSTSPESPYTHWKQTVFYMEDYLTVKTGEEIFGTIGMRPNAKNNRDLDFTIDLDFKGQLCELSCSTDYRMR

Structure (SMILES)	effect on PRMT1 activity (in words)
CN(C)CCCN/C=C1\C(=O)NC(=O)c2ccccc21 [TR-018, (Z)-4-({[3-(Dimethylamino)propyl]amino}methylene)isoquinoline-1,3(2H,4H)-dione]	activated PRMT1 in a significant manner, albeit to a considerably lesser extent than TR-07
O=C1NC(=O)c2ccccc2C1=CNc1ccccc1Cn1cncn1 [ICTR-042]	no significant or minimal inhibitory activity
O=C1NC(=O)c2ccccc2C1=CNCc1cccnc1 [TR-032]	activated PRMT1 in a significant manner, albeit to a considerably lesser extent than TR-07
O=C1NC(=O)c2ccccc2C1=CNc1ccccc1Cn1cccc1 [ICTR-036]	no significant or minimal inhibitory activity
CCN(CC)Cc1ccccc1-c1ccc2[nH]c(=O)c3ccccc3c2c1 [ICTR-094]	significantly lower activation of PRMT1 compared to TR-07

Second part, the compound after the results:

effect on PRMT1 activity (in words)	Structure (SMILES)
reduced activating effect	CN(C)Cc1ccccc1CN/C=C1\C(=O)NC(=O)c2ccccc21 [ICTR-063]
no effect or a modest activating effect	C[N+](C)(C)Cc1cccc(CN/C=C2\C(=O)NC(=O)c3ccccc32)c1.[I-] [ICTR-108]
no effect	Nc1ccccc1N/C=C1\C(=O)NC(=O)c2ccccc21 [ICTR-019]
significantly increased PRMT1 activity	CCN(CC)Cc1cccc(-c2ccc3[nH]c(=O)c4ccccc4c3c2)c1 [ICTR-096]
no effect or a modest activating effect	CN(C)c1ccccc1CN/C=C1\C(=O)NC(=O)c2ccccc21 [ICTR-052]
no significant effect	CCN(CC)Cc1ccccc1CN/C=C1\C(=O)NC(=O)c2ccccc21 [ICTR-119]
strong inhibitory effect	O=C1NC(=O)c2ccccc2C1=CNc1cccc(CN2CCOCC2)c1 [TR-038]
no significant effect	O=C1NC(=O)c2ccccc2C1=CNc1cccnc1 [TR-031]
no effect	CN(C)c1ccccc1N/C=C1\C(=O)NC(=O)c2ccccc21 [ICTR-015]
no effect	CCN(CC)c1ccccc1N/C=C1\C(=O)NC(=O)c2ccccc21 [ICTR-060]
no effect	CC(C)Cc1ccc(N/C=C2\C(=O)NC(=O)c3ccccc32)cc1 [ICTR-076]
no significant effect	O=C1NC(=O)c2ccccc2/C1=C/Nc1ccccn1 [TR-030, (Z)-4-[(Pyridin-2-ylamino)methylene]isoquinoline-1,3(2H,4H)-dione]
equal	CN(C)Cc1ccccc1N/C=C1\C(=O)NC(=O)c2ccccc21 [TR-022]

Same assay, conditions: 100 μM compound, increase over solvent-treated activity; read-out: enhancement (increase) of PRMT1 enzymatic activity

activation at 100 µM [%]	Structure (SMILES)
≥ 60	CN(C)Cc1ccc(N/C=C2\C(=O)NC(=O)c3ccccc32)cc1 [TR-021]
≥ 60	CCN(CC)Cc1cccc(-c2ccc3[nH]c(=O)c4ccccc4c3c2)c1 [ICTR-096]

Target: T2, FLAG-tagged PRMT4 (Mus musculus, UniProt Q9WVG6)
T2 construct: Full-length FLAG-tagged PRMT protein; made in house; host or cells: Sf9 insect cells (baculovirus)
T2 sequence (Q9WVG6 1-608): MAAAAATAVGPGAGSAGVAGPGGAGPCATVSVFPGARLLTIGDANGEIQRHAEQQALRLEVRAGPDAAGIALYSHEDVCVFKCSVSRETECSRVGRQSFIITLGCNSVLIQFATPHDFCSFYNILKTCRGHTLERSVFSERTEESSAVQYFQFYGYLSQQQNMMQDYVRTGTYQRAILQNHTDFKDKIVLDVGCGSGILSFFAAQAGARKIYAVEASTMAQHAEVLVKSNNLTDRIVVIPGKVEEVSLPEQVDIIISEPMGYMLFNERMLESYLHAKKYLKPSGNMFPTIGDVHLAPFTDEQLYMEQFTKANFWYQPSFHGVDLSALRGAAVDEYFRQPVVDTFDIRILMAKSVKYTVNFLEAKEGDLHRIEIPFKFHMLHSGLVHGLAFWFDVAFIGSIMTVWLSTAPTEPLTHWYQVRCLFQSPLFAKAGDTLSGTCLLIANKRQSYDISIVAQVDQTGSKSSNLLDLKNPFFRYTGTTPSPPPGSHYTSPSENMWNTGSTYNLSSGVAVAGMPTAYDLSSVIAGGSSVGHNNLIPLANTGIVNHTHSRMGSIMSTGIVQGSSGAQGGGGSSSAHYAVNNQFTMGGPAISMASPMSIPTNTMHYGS
Test: Fluorescence-based in vitro PRMT assay (F-PRMT assay), PRMT4
Type: biochemical
Conditions: Table S2; 100 µM compound, vs solvent control = 100%, n=3; racemates used
Source text: (§1) To evaluate the effects of the selected candidate molecules on the catalytic activity of type I enzymes, we employed a quantitative fluorescence-based in vitro PRMT activity (F-PRMT) assay using recombinant FLAG-tagged PRMT proteins expressed and affinity-purified from baculovirus-infected Sf9 cells (SI Figure S1, SI Figure S2A).
(§2) Human cell lines (PaTu8988T, PANC-1) were obtained from ATCC (American Type Culture Collection) and cultured in DMEM supplemented with 10% fetal calf serum (FCS, Gibco/BRL), 1% penicillin/streptomycin at 37 °C and 5% CO2. […] For PRMT1 inhibition, cells were treated with type I PRMT inhibitor MS023 hydrochloride (Biomol). For induction of genotoxic stress, cells were treated with gemcitabine (LC Laboratories). […] The following plasmids were used: pFASTBAC-FLAG-rat PRMT1, pFASTBAC-FLAG-mouse PRMT4, and pGEX-GAR. The complete ORFs of human PRMT3 and PRMT6 were inserted into the pFASTBAC HT-3xFLAG B vector via BamHI/HindIII and BamHI/XhoI sites, respectively.
(§3) For PRMT protein expression in insect cells, recombinant baculovirus (bacmid) was generated using the Bac-to-Bac baculovirus system (Invitrogen). Sf9 cells were transfected with bacmid DNA using X-tremeGENE HP DNA transfection reagent (Sigma-Aldrich) according to the manufacturer's instructions. After 3–5 days, supernatants were collected, filtered, and used to infect Sf9 cells to amplify the virus. After 2 rounds of virus amplification and estimation of the final P3 virus titer, the P3 virus (2–5 μL/10^6 cells) was applied for large-scale infection of 200 × 10^6 Sf9 cells in suspension culture at a density of 1 × 10^6 cells/mL. Cells were harvested 5–6 days post-infection by centrifugation at 500 g for 5 min at room temperature. Protein purification from baculovirus-infected Sf9 cells was performed as previously described. , Cells were lysed in BC buffer (20 mM HEPES pH 7.9, 250 mM NaCl, 10% (v/v) glycerin, 0.4 mM EDTA, 1 mM DTT) containing a protease inhibitor cocktail (Roche) by 3 freeze-thaw cycles. After centrifugation at 11,000 rpm (Sorval SS34 rotor) and 4 °C for 1 h, the supernatant (whole cell protein extract) was incubated with anti-FLAG M2 Affinity Gel (Cytiva) at 4 °C and under agitation for 4 h. Subsequently, beads were washed in BC buffer containing various NaCl concentrations (once in BC with 1 M NaCl, twice in BC with 500 mM NaCl, twice in BC with 250 mM NaCl and twice in BC with 100 mM NaCl). FLAG-tagged proteins were either maintained bead-bound as a 50% (v/v) slurry in BC buffer with 100 mM NaCl and stored at −80 °C or were eluted in the appropriate elution buffer (depending on the subsequent assay) containing 0.25 mg/mL 3xFLAG peptides (Sigma-Aldrich) at 4 °C for 30–45 min. To remove the FLAG-peptides from the eluate, dialysis was performed in elution buffer containing 10% (v/v) glycerol at 4 °C for 4–6 h using Slide-A-Lyzer Dialysis Devices (Thermo Fisher Scientific) according to the manufacturer’s recommendations.
(§4) In the first step, the fluorogenic substrate Nα-Benzoyl-L-arginine-7-amido-4-methylcoumarin (Bz-Arg-AMC, Sigma-Aldrich) undergoes methylation by PRMTs upon the addition of the cofactor SAM. In the second reaction step, trypsin cleaves the nonmethylated substrate, leading to the generation of the 7-amino-4-methylcoumarin product, which can be quantified by subsequent fluorescence measurement (excitation: 355 nm, emission: 460 nm). The first reaction was conducted with bead-bound PRMTs at a total volume of 100 μL. Each condition was performed as a technical triplicate to determine the mean and the standard deviation. […] For the negative controls, SAM was substituted with assay buffer. The incubation was continued at 37 °C and under agitation (1,000 rpm) for a duration of 2 h.

Structure (SMILES)	Experimental result (PRMT4)
C#CCNCC(=O)Nc1ccc([C@@H]2C[C@H]2N)cc1 (racemic) [Compound K400JK009]	n.e. (did not significantly affect the catalytic activity of the intended PRMT (less than ±6% change or not significant p-value), are marked with n.e. (no effect))
Cc1ccc([N+](=O)[O-])c(OCCC(=O)Nc2ccc(O)cc2C)c1 [Compound K001JS012]	n.e. (did not significantly affect the catalytic activity of the intended PRMT (less than ±6% change or not significant p-value), are marked with n.e. (no effect))
O[C@H](CNCc1ccco1)COc1ccc2ccccc2c1 (racemic) [Compound K001JS002]	n.e. (did not significantly affect the catalytic activity of the intended PRMT (less than ±6% change or not significant p-value), are marked with n.e. (no effect))
OCCNC[C@@H](O)COc1ccccc1 (racemic) [Compound K001JS001]	n.e. (did not significantly affect the catalytic activity of the intended PRMT (less than ±6% change or not significant p-value), are marked with n.e. (no effect))
COc1cccc(CNC(=O)NCc2nc3ccccc3s2)c1 [Compound K001FT008]	n.e. (did not significantly affect the catalytic activity of the intended PRMT (less than ±6% change or not significant p-value), are marked with n.e. (no effect))
N=C(N)NCCCc1ccccc1Br [Compound K001FT004]	n.e. (did not significantly affect the catalytic activity of the intended PRMT (less than ±6% change or not significant p-value), are marked with n.e. (no effect))
CNC(=O)COc1ccc(NC(=O)[C@@H]2NC[C@@H]3C[C@@H]32)cc1 (racemic) [Compound K400JK006]	n.e. (did not significantly affect the catalytic activity of the intended PRMT (less than ±6% change or not significant p-value), are marked with n.e. (no effect))
CCN(CC)Cc1ccc(NS(=O)(=O)c2cc(C)cs2)cc1 [Compound K400JK016]	n.e. (did not significantly affect the catalytic activity of the intended PRMT (less than ±6% change or not significant p-value), are marked with n.e. (no effect))

Same assay, conditions: Table S2; 100 µM compound; mean % difference vs solvent control (100%), n=3

Efficacy ±∆% (PRMT4)	Structure (SMILES)
+8%	CCS(=O)(=O)Nc1ccc(NC(=O)C23CC(CN2)C3)cc1 [Compound K400JK004]
-10%	CC1(C(=O)Nc2ccc3nc(CN)[nH]c3c2)CCC1 [Compound K400JK011]

Target: T3, FLAG-tagged PRMT6 (Homo sapiens, UniProt Q96LA8)
T3 construct: The complete ORFs of human PRMT3 and PRMT6 were inserted; made in house; host or cells: Sf9 insect cells (baculovirus)
Test: Fluorescence-based in vitro PRMT assay (F-PRMT assay), PRMT6
Type: biochemical
Conditions: Table S2; 100 µM compound, vs solvent control = 100%, n=3; racemates used
Source text: as §1, §2, §3, §4

T3 sequence (Q96LA8 whole entry): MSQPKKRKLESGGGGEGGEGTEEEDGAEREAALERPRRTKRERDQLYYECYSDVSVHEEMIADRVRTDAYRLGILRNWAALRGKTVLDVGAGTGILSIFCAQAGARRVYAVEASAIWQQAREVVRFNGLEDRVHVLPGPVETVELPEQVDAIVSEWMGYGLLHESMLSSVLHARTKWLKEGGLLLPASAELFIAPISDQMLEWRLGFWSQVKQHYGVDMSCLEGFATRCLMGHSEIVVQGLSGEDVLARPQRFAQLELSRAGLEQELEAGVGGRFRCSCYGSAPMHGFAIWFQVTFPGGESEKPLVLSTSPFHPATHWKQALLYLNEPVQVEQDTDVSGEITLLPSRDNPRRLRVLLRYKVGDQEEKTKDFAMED

Structure (SMILES)	Experimental result (PRMT6)
CN(C)CCNc1ncnc2cc(-c3ccc(F)cc3)sc12 [Compound K002FT005]	n.e. (did not significantly affect the catalytic activity of the intended PRMT (less than ±6% change or not significant p-value), are marked with n.e. (no effect))
CNCC(=O)NCCc1ccc(OC)c(OC)c1 [Compound K002JS002]	n.e. (did not significantly affect the catalytic activity of the intended PRMT (less than ±6% change or not significant p-value), are marked with n.e. (no effect))
COc1cc(CNCCO)ccc1Oc1nnnn1-c1ccccc1 [Compound K002FT006]	n.e. (did not significantly affect the catalytic activity of the intended PRMT (less than ±6% change or not significant p-value), are marked with n.e. (no effect))
